Results: PubChem BioAssay (NCI)
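Results reflect a 48-hour exposure of cells in 96-well plates to compound at five concentrations. Here, GI50 denotes the concentration required for 50% inhibition of growth. At the TGI there is no net growth.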

What was measured:
Experiment in all cases: NCI-60 cell line screen, 48 h
[1] = tested on: SNB-75 CNS
[2] = tested on: RPMI-8226 leukemia
[3] = tested on: 786-0 renal
[4] = tested on: SK-MEL-2 melanoma
[5] = tested on: NCI-H460 lung
[6] = tested on: MALME-3M melanoma
[7] = tested on: NCI/ADR-RES ovarian
[8] = tested on: MDA-MB-435
[9] = tested on: SNB-19 CNS
[10] = tested on: CCRF-CEM leukemia

Work on `C/C(CC(=O)Nc1ccc(NC(=O)/C(C)=N/NS(=O)(=O)c2ccc(C)cc2)cc1)=N\NS(=O)(=O)c1ccc(C)cc1` yielded a TGI [1] greater than 100 µM, a TGI [2] greater than 100 µM and a TGI [3] greater than 100 µM. The TGI [4] was greater than 100 µM, the TGI [5] was greater than 100 µM and the TGI [6] was greater than 100 µM.
For `Cc1cc(Cl)ccc1Nc1nc(C(F)(F)F)ccc1C(=O)N/N=C/c1ccc(N(C)C)cc1`, the GI50 [1] was 1.83 µM, the TGI [1] was greater than 100 µM and the GI50 [2] was 2.94 µM. The TGI [2] was greater than 100 µM, the GI50 [3] was 0.997 µM and the TGI [3] was greater than 100 µM. It also gave a GI50 [7] of 2.21 µM, a TGI [7] greater than 100 µM and a GI50 [5] of 1.57 µM. The TGI [5] was greater than 100 µM, the GI50 [8] was 4.02 µM and the TGI [8] was greater than 100 µM. It also gave a GI50 [9] of 3.08 µM and a TGI [9] greater than 100 µM.
Work on `Cc1ccc2oc(=O)cc(C3c4ccc([nH]4)C(c4cc(=O)oc5ccc(C)cc45)c4ccc([nH]4)C(c4cc(=O)oc5ccc(C)cc45)c4ccc([nH]4)C(c4cc(=O)oc5ccc(C)cc45)c4ccc3[nH]4)c2c1` (stereo unspecified) yielded a GI50 [1] of 0.0256 µM, a TGI [1] of 1.61 µM and a GI50 [2] of 0.0516 µM. The TGI [2] was 0.578 µM, the GI50 [3] was 0.0288 µM and the TGI [3] was 0.0937 µM. The GI50 [4] was 0.0983 µM, the TGI [4] was 1.02 µM and the GI50 [7] was 0.0313 µM. The TGI [7] was 1.1 µM, the GI50 [5] was 0.0375 µM and the TGI [5] was 0.656 µM. It also gave a GI50 [9] of 0.0394 µM, a TGI [9] of 3.45 µM and a GI50 [6] of 0.131 µM. The TGI [6] was 2.85 µM, the GI50 [10] was 0.0359 µM and the TGI [10] was greater than 100 µM.
`CC(=O)[CH-]C(=O)c1ccccc1.CC(=O)[CH-]C(=O)c1ccccc1.CC[O-].O=C1C=C([O-])C(=O)c2ccccc21.[Ti+4]` showed a GI50 [1] greater than 100 µM, a TGI [1] greater than 100 µM and a GI50 [2] of 16.9 µM. It also gave a TGI [2] of 85.8 µM, a GI50 [3] greater than 100 µM and a TGI [3] greater than 100 µM. It also gave a GI50 [4] of 9.07 µM, a TGI [4] of 86.3 µM and a GI50 [5] of 71.9 µM. It also gave a TGI [5] greater than 100 µM, a GI50 [9] greater than 100 µM and a TGI [9] greater than 100 µM. The GI50 [6] was 34.8 µM, the TGI [6] was greater than 100 µM and the GI50 [10] was 21 µM. It also gave a TGI [10] greater than 100 µM.
Compound `O/N=C1/C(=C/c2ccc(Cl)cc2)CCCC1C(NO)c1ccc(Cl)cc1` (stereo unspecified) has a TGI [1] of 39.5 µM, a TGI [2] of 44.4 µM and a TGI [3] of 42.7 µM. The TGI [4] was 68.5 µM, the TGI [5] was 35.3 µM and the TGI [9] was 76.6 µM. It also gave a TGI [6] of 64.6 µM and a TGI [10] of 42.6 µM.
`CCc1c(-c2coc(CC/C(C)=C/c3ccccc3)n2)oc(OC)c(C)c1=O` showed a TGI [1] greater than 100 µM, a TGI [2] greater than 100 µM and a TGI [3] greater than 55.4 µM. It also gave a TGI [4] greater than 100 µM, a TGI [5] greater than 100 µM and a TGI [9] greater than 86.3 µM. It also gave a TGI [6] greater than 100 µM and a TGI [10] greater than 100 µM.
Compound `Cn1c(=O)c2[nH]cnc2n(CC(=O)O)c1=O` has a TGI [1] greater than 100 µM, a TGI [2] greater than 100 µM and a TGI [3] greater than 100 µM. The TGI [4] was greater than 100 µM, the TGI [5] was greater than 100 µM and the TGI [9] was greater than 100 µM. The TGI [6] was greater than 100 µM and the TGI [10] was greater than 100 µM.
In the case of `N#CNc1nc(C(=O)Nc2ccc(Cl)cc2)cc(-c2ccccc2)n1`, the TGI [1] is reported as greater than 100 µM, the TGI [2] is reported as greater than 100 µM and the TGI [3] is reported as greater than 100 µM. For the same compound, the TGI [4] was greater than 100 µM, the TGI [9] was greater than 100 µM and the TGI [6] was greater than 100 µM.
In the case of `COC(=O)C1CCC(N2C(=O)CCC2C(=O)OC)=N1` (stereo unspecified), the TGI [1] is reported as greater than 100 µM, the TGI [2] is reported as greater than 100 µM and the TGI [3] is reported as greater than 100 µM. It also gave a TGI [4] greater than 100 µM, a TGI [5] greater than 100 µM and a TGI [9] greater than 100 µM. It also gave a TGI [6] greater than 100 µM and a TGI [10] greater than 100 µM.
Work on `O=c1cc(-c2ccc[nH]2)[nH]c2cc3c(cc12)OCO3` yielded a TGI [1] of 68.9 µM, a TGI [2] greater than 100 µM and a TGI [3] greater than 100 µM. The TGI [4] was greater than 100 µM, the TGI [5] was greater than 100 µM and the TGI [9] was greater than 100 µM. It also gave a TGI [6] greater than 100 µM and a TGI [10] greater than 100 µM.
Work on `Cc1cccc(NC(=O)Cc2nc3ccccc3s2)c1C` yielded a TGI [1] greater than 100 µM, a TGI [2] greater than 100 µM and a TGI [3] greater than 100 µM. It also gave a TGI [4] greater than 100 µM, a TGI [5] greater than 100 µM and a TGI [9] greater than 100 µM. It also gave a TGI [6] greater than 100 µM and a TGI [10] greater than 100 µM.
`O=C1c2c(O)cccc2C(C(=O)CCCC(=O)C2c3cccc(O)c3C(=O)c3c(O)cccc32)c2cccc(O)c21` showed a TGI [1] of 2.82 µM, a TGI [2] of 0.752 µM and a TGI [3] of 9.72 µM. It also gave a TGI [4] of 0.861 µM, a TGI [5] of 0.661 µM and a TGI [8] of 2.5 µM. The TGI [9] was 4.12 µM, the TGI [6] was 2.85 µM and the TGI [10] was 8.02 µM.
With `COc1cc(C(=C2SCCS2)c2nccc3cc(OC)c(OC)cc23)c([N+](=O)[O-])cc1OC` the TGI [1] was greater than 100 µM, the TGI [2] was greater than 100 µM and the TGI [3] was greater than 100 µM. The TGI [4] was greater than 100 µM, the TGI [9] was greater than 100 µM and the TGI [6] was greater than 100 µM. For the same compound, the TGI [10] was greater than 100 µM.
Compound `O=C(Nc1ccccc1)OCc1nc2c([nH]1)C(=O)C=CC2=O` has a TGI [1] of 37.1 µM, a TGI [2] of 51.1 µM and a TGI [3] of 32.5 µM. For the same compound, the TGI [4] was 34.2 µM, the TGI [5] was 36.8 µM and the TGI [9] was 28.5 µM. The TGI [6] was 18.3 µM and the TGI [10] was 13.1 µM.
`CC(=O)OC1C/C(C)=C/[C@H](O)CC(C)/C=C/[C@@]2(C)CCC(C(C)(C)O)C12` (stereo partly specified) was tested, and the TGI [1] was greater than 100 µM, the TGI [2] was greater than 100 µM and the TGI [3] was greater than 100 µM. The TGI [4] was greater than 100 µM, the TGI [5] was greater than 100 µM and the TGI [9] was greater than 100 µM. The TGI [6] was greater than 100 µM and the TGI [10] was greater than 100 µM.
With `CCc1ccccc1NC(=O)C1=C(C)NC(C)=C(C(=O)Nc2ccccc2CC)C1c1ccc(NC(C)=O)cc1` the TGI [1] was greater than 100 µM, the TGI [2] was 48.9 µM and the TGI [3] was greater than 100 µM. It also gave a TGI [4] of 70.1 µM, a TGI [5] greater than 100 µM and a TGI [9] greater than 100 µM. For the same compound, the TGI [6] was greater than 100 µM and the TGI [10] was 65.8 µM.
Work on `C=C(C)C(=O)N1c2ccc(OC)cc2CC1C(=O)OCC` (stereo unspecified) yielded a TGI [1] greater than 100 µM, a TGI [3] greater than 100 µM and a TGI [4] greater than 100 µM. For the same compound, the TGI [7] was greater than 100 µM, the TGI [5] was greater than 100 µM and the TGI [9] was greater than 100 µM. For the same compound, the TGI [10] was greater than 100 µM.
`O=C1C(Cl)=C(Nc2ccc3c(c2NC2=C(Cl)C(=O)c4ccccc4C2=O)C(=O)c2ccccc2C3=O)C(=O)c2ccccc21` showed a GI50 [1] of 4.35 µM, a TGI [1] of 13.9 µM and a GI50 [2] of 1.66 µM. It also gave a TGI [2] of 9.37 µM, a GI50 [3] of 2.91 µM and a TGI [3] of 9.6 µM. It also gave a GI50 [4] of 1.82 µM, a TGI [4] of 6.33 µM and a GI50 [5] of 1.86 µM. It also gave a TGI [5] of 5.85 µM, a GI50 [8] of 0.346 µM and a TGI [8] of 1.04 µM. It also gave a GI50 [9] of 2.74 µM, a TGI [9] of 10.3 µM and a GI50 [6] of 0.505 µM. The TGI [6] was 1.72 µM, the GI50 [10] was 2.48 µM and the TGI [10] was 24.7 µM.
Work on `COC(=O)C1=C2CO[C@@H]3C[C@H]4C(C)(C)CCC[C@]4(C)C(=CC1)[C@]23C` yielded a GI50 [1] of 20.4 µM, a TGI [1] of 50.9 µM and a GI50 [2] of 13.6 µM. The TGI [2] was 29.9 µM, the GI50 [3] was 41.5 µM and the TGI [3] was greater than 100 µM. It also gave a GI50 [5] of 51.1 µM, a TGI [5] greater than 100 µM and a GI50 [8] of 16.7 µM. For the same compound, the TGI [8] was 37.5 µM, the GI50 [9] was 46.8 µM and the TGI [9] was greater than 100 µM. For the same compound, the GI50 [6] was 12.1 µM, the TGI [6] was 68.5 µM and the GI50 [10] was 21.6 µM. For the same compound, the TGI [10] was 46.4 µM.
`[N-]=[N+]=NC(c1cn(C2CC(O)C(CO)O2)c(=O)[nH]c1=O)C(I)I` (stereo unspecified) showed a TGI [2] greater than 100 µM, a TGI [3] greater than 100 µM and a TGI [4] greater than 100 µM. The TGI [5] was greater than 100 µM, the TGI [9] was greater than 100 µM and the TGI [6] was greater than 100 µM. For the same compound, the TGI [10] was greater than 100 µM.
